Laboratory results taken from US5922324A, “Propolis extract with improved water-solubility” (Kabushiki Kaisha Hayashibara Seibutsu Kagaku Kenkyujo, priority 1997, dated 1999).
Converted amounts (≈) assume the structure as drawn.

What was measured:
[1] = Water-solubility of substance C in propolis extract (supernatant concentration); assay type: physicochemical
Method: The sample in Experiment 1 was mixed with an equal amount of 50 v/v % aqueous ethanol solution either with or without an adequate amount of sodium hydroxide, and the mixture with a pH 5.0 was adjusted to a pH of 5.2, 5.5, 5.8, 6.0, 6.2, 6.4, 6.8, 7.0, 7.2, 7.5 or 8.1 before prepared into an about 10 w/w % liquid propolis extract, d.s.b., as samples used in the following experiments.
After one-month standing at 25° C., the samples were tested similarly as in Experiments 2-(1) to 2-(4) and subjected to a sensory evaluation using 12 panels.

[2] = Confirmation of insolubilized substance C (HPLC of supernatant after 101-fold dilution); assay type: physicochemical
From the text: A propolis mass was disrupted, injected into 3 columns and fed with 50 v/v % aqueous ethanol solution by counter-current extraction method to dissolve and extract the effective ingredients of propolis. The extract was filtered to obtain a liquid propolis extract containing about 20 w/w % dry solid in a yield of about 30% of the material propolis, d.s.b.
The pH of the sample was 5.0 when measured with a pH-meter. The sample was placed in a beaker and diluted with water by 101-fold into a dilute aqueous ethanol solution in the form of a white suspension which was then allowed to stand at 25° C. for an hour under gentle stirring conditions and centrifuged to obtain a supernatant. High-performance liquid chromatography (HPLC) was used to quantify the concentration of substance C in the supernatant according to the method as described in Bioscience, Biotechnology, and Biochemistry, Vol. 58, No. 5, pp. 945-946 (1994). As a control, the sample was diluted by 101-fold with ethanol in place of water.

## CC(C)=CCc1cc(C=CC(=O)O)cc(CC=C(C)C)c1O [substance C, 3-[4-hydroxy-3,5-bis(3-methyl-2-butenyl)phenyl]-2-propenoic acid]
[1]; pH dependence
  Water-solubility of substance C (in words): greatly increased when adjusted to a pH of over 5.5
[1]; pH increased from about 5.0 to 5.5-7.0
  improvement of solubility of substance C in dilute aqueous ethanol solution: 15-100 folds
[2]; 101-fold dilution
  Concentration of substance C in water dilution relative to control diluted with ethanol: 0.06%
[2]; dilute aqueous ethanol, organic solvent or mixture, 25° C., pH about 5.0 extract, 10 w/w % d.s.b. in 50 v/v % aqueous ethanol, diluted with water by about 100 folds, read-out: Concentration in which substance C dissolves in dilute aqueous ethanol solution
  solubility kinetic: 0.03 µg/mL (≈ 0.0999 µM)
[2]; diluted with ethanol by 101-fold, control
  Concentration of substance C in supernatant of dilution diluted with ethanol (Control): 46.7 ppm
[2]; dilution with water into dilute aqueous ethanol solution
  Solubilization of substance C on dilution with water (in words): insolubilized most of substance C
[2]; sediments dissolved in ethanol, after dilution with water
  Amount of substance C of the sample contained in sediments collected by centrifugation: at least 99%
